The values below come from patent US11530181B2, “IL-6 inhibitors and methods of treatment” (University of Florida Research Foundation, Incorporated, priority 2018, dated 2022).

Molecules are shown by their SMILES.

Broadly, the IC50 is the concentration that gives 50% inhibition. A higher IC50 goes with weaker potency.

The test system of test [1] is SUM159 breast cancer cell line. Nature of the test: MTT cell viability assay, SUM159. In kind it is cell-based, human. Conditions: for inhibitory effect compared to parent compound LLM4: SUM159, 25 μM, 48 hours. On the procedure:
(§1) Human breast cancer cell lines MCF7, MDA-MB-231 and SUM159 were maintained in Dulbecco's modified Eagle medium (DMEM). Human pancreatic cancer cell line BxPC-3 was maintained in RPMI 1640 medium. Human pancreatic cancer cell line Capan-1 was maintained in Iscove's Modified Dulbecco's Medium (IMEM). All media were supplemented with 10% FBS and 1% penicillin/streptomycin, and cells were incubated in a humidified 37° C. incubator with 5% CO2. PE/CA-PJ49 cell line was purchased from external sources and maintained according to manufacturer's protocol.
(§2) Cell viability was evaluated by using the MTT assay in triple replicates in one experiment and repeated for three times. Cancer cells were seeded in 96-well plates at a density of 3,000 cells per well. The cells were incubated at 37° C. for a period of 24 hours. Escalating concentrations of IL-6/gp130 inhibitors were added in triplicate to the plates in the presence of 10% FBS. After incubation for 48 or 72 hours, a stock solution of MTT (0.5 mg/ml) was then added to each well containing the treated cells, followed by incubation at 37° C. for 3 h. After removal of medium, the MTT dye was dissolved with spectrophotometric grade DMSO and the absorbance was read at 570 nm. The IC50 value is determined by interpolation based on the absorbance value halfway between positive and negative controls.
A general note: Tetrazolium assays rely on reduction of a dye to a coloured formazan, in cell work by metabolically active cells.

In test [2] the test system is BxPC-3 pancreatic cancer cell line. Nature of the test: MTT cell viability assay, BxPC-3. Conditions: for IC50: Homo sapiens, BxPC-3, Table 7; for inhibitory effect compared to parent compound LLM4: BxPC-3, 25 μM, 48 hours. The class given is cell-based, human. On the procedure: as §1
as §2, with “controls. In the experiment of LLM4 showing higher efficacy in cancer cells with higher levels of IL-6, instead of using medium with 10% FBS, DMEM with 0% FBS was used in order to eliminate the influence of trace amounts of growth factors and cytokines in FBS.” for “controls.”

The test system of the next test is PE/CA-PJ49 cell line. Nature of the test: Inhibitory activity in PTPRD mutant cell line PE/CA-PJ49. Conditions: PE/CA-PJ49, 48 h. In kind it is cell-based. On the procedure: as §1
as §2, with “controls. In the experiment of LLM4 showing higher efficacy in cancer cells with higher levels of IL-6, instead of using medium with 10% FBS, DMEM with 0% FBS was used in order to eliminate the influence of trace amounts of growth factors and cytokines in FBS.” for “controls.”
Protein tyrosine […] receptor type D (PTPRD) is reported to serve as a tumor suppressor in various human cancers [Peyser et. al, PLoS One (2015) 10(8)]. PTPRD mutation is also known to be associated with increased STAT3 expression [Peyser et. al, PLoS One (2015) 10(8)]. Table 8 captures the inhibitory activities of various compounds in the PTPRD mutant cell line, PE/CA-PJ49.

Test [3] deals with IL-6 induced STAT3 phosphorylation. As to the kind of experiment: Western blot, IL-6 induced STAT3 phosphorylation in MCF7. In kind it is cell-based, human. The settings on record: MCF7, 1-4 μM, 5 h, IL-6 50 ng/ml. On the procedure:
Cells were harvested and lysed in cold radioimmunoprecipitation assay (RIPA) lysis buffer containing proteasome inhibitor cocktail and phosphatase inhibitor cocktail. The protein concentrations were determined using the BCA Protein Assay kit. After adding the loading buffer and boiling at 95° C. for 10 minutes, equivalent amounts of proteins were loaded on and separated by SDS-PAGE, and then were transferred to PVDF membranes. Membranes were probed with primary antibodies (1:1000) against phospho-STAT3 (Tyr705), STAT3, phospho-STAT1 (Tyr701), STAT1, phospho-STAT6 (Tyr 641), STAT6, and GAPDH, respectively, and horseradish peroxidase (HRP)-conjugated secondary antibody (1:10000) (Cell Signaling Technology, Beverly, Mass.). Membranes were analyzed using Enhanced Chemiluminescence Plus reagents and either scanned with the Storm Scanner (Amersham Pharmacia Biotech, Inc., Piscataway, N.J.) or imaged with ChemiDoc MP imaging system (Bio-Rad, Hercules, Calif.). For cytokine induction of STAT3 phosphorylation, MCF-7 breast cancer cells were seeded in 10 cm plates (1 million cells per plate) and allowed to adhere overnight followed by serum-starvation. […] After designated hours, LLM-418 treated and untreated cells were stimulated by IL-6, LIF, and OSM (50 ng/mL). The cells were harvested after 30 minutes and analyzed by Western blot.
MCF7 breast cancer cells were seeded in 10 cm plates (1 million cells per plate) and allowed to adhere overnight. The following day, the cells were serum-starved. The cells were then left untreated or treated with LLM4 (5-20 μM). After designated hours, the LLM4 treated and untreated cells were stimulated by IL-6, LIF, OSM, CNTF, CT-1, IL-11, IL-4 or INF-γ (50 ng/ml). The cells were harvested after 30 minutes and analyzed by western blotting.
A general note: A western blot detects proteins with antibodies after separation by electrophoresis.

Another test concerns the target T1, gp130-D1-D3 (Homo sapiens, UniProt P40189).
T1 construct: residues 1-301, the numbering system is based on PDB 3L5H, which is the mature form of gp130; tandem TFH purification tag (includes FLAG, as purified on anti-FLAG M2 agarose) (C); made in house; host or cells: Hi5 insect cells (baculovirus; virus generated in sf9)
T1 sequence (P40189 23-323): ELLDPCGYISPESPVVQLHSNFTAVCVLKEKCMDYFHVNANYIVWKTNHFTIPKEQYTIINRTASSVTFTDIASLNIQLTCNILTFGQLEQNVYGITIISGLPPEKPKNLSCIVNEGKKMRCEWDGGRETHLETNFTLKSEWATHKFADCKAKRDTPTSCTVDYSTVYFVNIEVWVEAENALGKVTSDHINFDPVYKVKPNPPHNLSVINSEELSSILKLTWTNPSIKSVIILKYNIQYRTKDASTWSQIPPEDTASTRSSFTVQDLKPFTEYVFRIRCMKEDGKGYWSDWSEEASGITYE
As to the kind of experiment: SPR direct binding to immobilized gp130-D1-D3 (CM5 chip). Conditions: for Kd: SPR, gp130-D1-D3, linear regression at low concentrations, 25% Rmax; for ΔGexp: experimental binding energy from SPR KD.

For test [4], the system named is multiple myeloma cell line U266. Nature of the test: Cell viability assay, U266. In kind it is cell-based, human. On the procedure: as §2, with “controls. In the experiment of LLM4 showing higher efficacy in cancer cells with higher levels of IL-6, instead of using medium with 10% FBS, DMEM with 0% FBS was used in order to eliminate the influence of trace amounts of growth factors and cytokines in FBS.” for “controls.”
It was reported in multiple myeloma cell line U266 that IL-6 is also elevated and of great importance for cancer progression [Jernberg W, Pettersson M, Carlsson M, et al. Increase in interleukin 6 (IL-6) and IL-6 receptor expression in a human multiple myeloma cell line, U-266, during long-term in vitro culture and the development of a possible autocrine IL-6 loop 1. Leukemia. 1992, 4, 310-318]. These novel IL-6/gp130 inhibitors were tested in U266 cells at a concentration of 25 μM for an incubation time of 48 and 72 hours. MDL16 and LLM4 were used as control compounds.

Test [5] deals with Extracellular Domain of gp130 (Homo sapiens, UniProt P40189). Conditions: literature value; read-out: reported binding affinity; cited from earlier work.
Extracellular Domain of gp130, sequence (P40189 23-619 limits assumed): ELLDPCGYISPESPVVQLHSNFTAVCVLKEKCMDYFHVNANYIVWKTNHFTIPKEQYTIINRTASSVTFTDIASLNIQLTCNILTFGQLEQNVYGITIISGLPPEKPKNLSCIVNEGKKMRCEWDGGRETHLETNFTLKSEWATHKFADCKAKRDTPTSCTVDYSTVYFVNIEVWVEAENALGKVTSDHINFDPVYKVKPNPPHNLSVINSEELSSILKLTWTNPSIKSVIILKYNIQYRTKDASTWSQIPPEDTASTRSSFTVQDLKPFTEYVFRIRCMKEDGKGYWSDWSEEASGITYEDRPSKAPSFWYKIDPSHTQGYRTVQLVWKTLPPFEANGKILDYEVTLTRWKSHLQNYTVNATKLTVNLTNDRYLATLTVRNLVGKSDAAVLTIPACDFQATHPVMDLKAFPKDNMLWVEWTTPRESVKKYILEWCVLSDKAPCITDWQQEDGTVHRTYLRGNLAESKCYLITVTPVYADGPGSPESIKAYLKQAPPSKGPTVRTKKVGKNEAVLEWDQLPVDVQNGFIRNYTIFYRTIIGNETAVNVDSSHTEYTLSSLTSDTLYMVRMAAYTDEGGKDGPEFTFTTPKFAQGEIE
Test [6] concerns MCF7 breast cancer cell line. As to the kind of experiment: MTT cell viability assay, MCF7. The class given is cell-based, human. The settings on record: MCF7 (low IL-6), 48 h, 0% FBS medium. On the procedure:
as §1
as §2, with “Escalating concentrations of IL-6/gp130 inhibitors were added in triplicate to the plates in the presence of 10% FBS.” left out, “controls. […]” for “controls.”

Test [7] has as its system SUM159 breast cancer cell line. Nature of the test: MTT cell viability assay, SUM159. The class given is cell-based, human. The settings on record: SUM159 (high IL-6), 48 h, 0% FBS medium.
For test [8], the system named is MDA-MB-231 breast cancer cell line. Nature of the test: MTT cell viability assay, MDA-MB-231. The class given is cell-based, human. Conditions: MDA-MB-231 (medium IL-6), 48 h, 0% FBS medium. On the procedure:
as §1
as §2, with “Escalating concentrations of IL-6/gp130 inhibitors were added in triplicate to the plates in the presence of 10% FBS.” left out, “controls. […]” for “controls.”

Setting [9] is: SUM159 human breast cancer cell line, MTT.

Consider `Cc1c(-c2ccc(O)cc2)n(Cc2ccc(OCCN3CCCCCC3)cc2)c2ccc(O)cc12` [Bazedoxifene, reference compound], for which the IC50 was 4.6 µM in test [1] (Homo sapiens, SUM159, Table 7) and 1.8 µM in test [2].

`CN(C)C(=O)Oc1cccc2c1C(=O)c1cccc(S(N)(=O)=O)c1C2=O` [LLL12B]: the IC50 in the test on PE/CA-PJ49 cell line is 0.0159 ± 0.00371 µM.

`NS(=O)(=O)c1cccc2c1C(=O)c1cccc(O)c1C2=O` [LLL12]: in the test with PE/CA-PJ49 cell line, it took 0.019 ± 0.00283 µM to reach half-maximal inhibition (IC50).

As to `O=C(Nc1cc(F)ccc1-n1cccc1)c1ccc(OCCN2CCCCC2)cc1` [LLM3, N-(5-fluoro-2-(1H-pyrrol-1-yl)phenyl)-4-(2-(piperidin-1-yl)ethoxy)benzamide], in test [1] (setting [9]), the IC50 came to 31.4 ± 4.7 µM.

Turning to `O=C(Nc1cc(F)ccc1-n1cccc1)c1ccc(OCCc2ccccc2)cc1` [LLM5, N-(5-fluoro-2-(1H-pyrrol-1-yl)phenyl)-4-phenethoxybenzamide], the IC50 in test [1] (setting [9]) amounted to 64.4 ± 6.9 µM.

`O=C(Nc1cc(F)ccc1-n1cccc1)c1ccc(OCCCCc2ccccc2)cc1` [LLM7, N-(5-fluoro-2-(1H-pyrrol-1-yl)phenyl)-4-(4-phenylbutoxy)benzamide]: it took 58.7 ± 6.3 µM to reach half-maximal inhibition in [1] (Homo sapiens, SUM159, SUM159 human breast cancer cell line, MTT) (IC50).

Turning to `O=C(Nc1cccc(-c2ccn[nH]2)c1)c1ccc(OCCCN2CCCCC2)cc1` [LLM41, N-(3-(1H-pyrazol-5-yl)phenyl)-4-(3-(piperidin-1-yl)propoxy)benzamide], the 50% inhibitory concentration (IC50) is 14 µM in test [1] (Homo sapiens, SUM159, SUM159, Table 7); 13 µM in test [2]; 5.4 µM in [4] (Homo sapiens, U-266, U266, 72 h). Moreover, the “inhibitory effect compared to parent compound LLM4” value is “comparable or slightly better at inhibition” in test [1]; “comparable or slightly better at inhibition” in test [2]; “greater inhibitory effects” in test [4] (U266, 25 μM, 48 and 72 hours). Further, the “inhibition of IL-6 induced STAT3 phosphorylation” value in test [3] is “inhibited STAT3 phosphorylation stimulated by IL-6 in MCF7 cells in a dose dependent manner”. At gp130-D1-D3, this compound yielded a Kd of 21.6 µM. For the same compound, the ΔGexp on gp130-D1-D3 is -6.36 kcal/mol.

In the case of `O=C(Nc1cccc(-c2ccn[nH]2)c1)c1cccc(OCCN2CCCCC2)c1` [LLM46, N-(3-(1H-pyrazol-5-yl)phenyl)-3-(2-(piperidin-1-yl)ethoxy)benzamide], the “inhibitory effect compared to parent compound LLM4” value in test [1] and in test [2] was “comparable or slightly better at inhibition” throughout.

Turning to `O=C(Nc1ccccc1-c1ccn[nH]1)c1ccc(OCCCN2CCCCC2)cc1` [LLM417, N-(2-(1H-pyrazol-5-yl)phenyl)-4-(3-(piperidin-1-yl)propoxy)benzamide], the “inhibitory effect compared to parent compound LLM4” value in test [1] and in test [2] was “comparable or slightly better at inhibition” throughout.

Consider `CCCCC1=C(C)C(=O)[C@](C)(CN2c3ccccc3[C@]3(O)CCOC23)C1=O` (stereo partly drawn) [MDL-A, Madindoline A, reference compound], for which, at gp130-D1-D3, the Kd was found to be 330 µM and the ΔGexp is -4.75 kcal/mol. In test [5], the Kd was 288 µM.

As for `O=C(NNc1nc2cc(F)ccc2n2cccc12)c1cnccn1` [SC144, reference compound], the 50% inhibitory concentration (IC50) was determined as 0.691 ± 0.064 µM in the test on PE/CA-PJ49 cell line, 4.7 µM in [6], 1.08 µM in test [7] and 1.22 µM in test [8].
